Results on three compounds are retold here after patent US12268683B2, “Compounds and methods for synergistic activation of M channels” (THE REGENTS OF THE UNIVERSITY OF CALIFORNIA, priority 2018, dated 2025).

The target in one experiment is KCNQ2-W236L/KCNQ3-W265L (Homo sapiens, UniProt O43525+O43526, W236L/W265L). Put plainly: TEVC of double-mutant WL/WL KCNQ2/3 channels. It is filed as cell-based. An excerpt: cRNA transcripts encoding human KCNA1, KCNQ1, KCNQ2, KCNQ3, KCNQ4, or KCNQ5 were generated by in vitro transcription using the T7 polymerase message machine kit (Thermo Fisher Scientific), after vector linearization, from cDNA sub-cloned into plasmids incorporating X. laevis β-globin 5′ and 3′ UTRs flanking the coding region to enhance translation and cRNA stability. cRNA was quantified by spectrophotometry. Mutant cDNAs were generated by site-directed mutagenesis using a QuikChange kit according to manufacturer's protocol (Stratagene, San Diego, Calif.) and corresponding cRNAs prepared as above. Defolliculated stage V and VI X. laevis oocytes (Ecocyte Bioscience, Austin, Tex.) were injected with Kv channel a subunit cRNAs (10 ng total per oocyte). Oocytes were incubated at 16° C. in Barth's saline solution (Ecocyte) containing penicillin and streptomycin, with daily washing, for 3-5 days prior to two-electrode voltage-clamp (TEVC) recording.
TEVC recording was performed at room temperature with an OC-725C amplifier (Warner Instruments, Hamden, Conn.) and pClamp10.2 software (Molecular Devices, Sunnyvale, Calif.) 3-5 days after cRNA injection as described in the section above. Oocytes were placed in a small-volume oocyte bath (Warner) and viewed with a dissection microscope. Chemicals were sourced from Sigma. Bath solution was (in mM): 96 NaCl, 4 KCl, 1 MgCl2, 1 CaCl2. 10 HEPES (pH 7.6). […] Currents were recorded in response to pulses between −80 and +40 mV at 20 mV intervals, or a single pulse to +40 mV, from a holding potential of −80 mV, to yield current-voltage relationships, current magnitude, and for quantifying activation rate. […]
cRNA transcripts encoding human KCNQ2, KCNQ3, KCNQ4, KCNQ5 (Kv7.2-Kv7.5) were generated by in vitro transcription using the T7 polymerase mMessage mMachine kit (Thermo Fisher Scientific), after vector linearization, from cDNA sub-cloned into plasmids incorporating Xenopus laevis β-globin 5′ and 3′ UTRs flanking the coding region to enhance translation and cRNA stability. cRNA was quantified by spectrophotometry. […]

The target of another experiment is KCNQ3* (Homo sapiens, UniProt O43525, A315T). Put plainly: [3H]GABA competition binding to oocytes expressing KCNQ3*. The note with it: 100 μM, 10 μM 3H-GABA. How it is done: Each group of oocytes was placed in a round-bottomed, 15-ml falcon tube, washed with ND96, and then resuspended in ND96 containing 10 μM γ-[2,3-^3H(N)]-aminobutyric acid (^3H-GABA) (Perkin Elmer, Waltham, Mass.) at 25-40 Ci/mMol specific activity either alone, or with 100 μM 2FPG or 100 μM 3FMSG, for a 30 minute incubation at room temperature. Oocytes were then washed four times in 16° C. ND96, transferred to individual wells in a 96 well plate and lysed in 0.2% SDS in ND96. Each oocyte lysate was transferred to a scintillation vial containing 5 ml Cytoscint scintillation cocktail fluid (MP Biomedicals, Santa Ana, Calif.). Vials were capped, shaken, and then allowed to sit at room temperature for at least 30 min before scintillation counting in a Beckmann Coulter LS6500 liquid scintillation counter.

`CC(=O)c1c(O)c(C)c(O)c(Cc2c(O)c3c(c(C(=O)/C=C/c4ccccc4)c2O)OC(C)(C)C=C3)c1O` [MTX, mallotoxin]: the “reduction of MTX potency (negative shift in voltage dependence) by W/L mutation” value at KCNQ2-W236L/KCNQ3-W265L (KCNQ2-W236L or KCNQ3-W265L, or both) is “tenfold”.
Take `NCC1(CC(=O)O)CCCCC1` [gabapentin, reference compound]: the “augmentation of WL/WL KCNQ2/3 current” value on KCNQ2-W236L/KCNQ3-W265L was no more than 50%.
`CS(=O)(=O)N(CC(=O)O)c1cccc(F)c1` [3FMSG]: the “competition with [3H]GABA binding to KCNQ3*” value on KCNQ3* is “able to compete out GABA binding”.
